Values of other authors in US20040132055A1, “Recombinant chalcomycin polyketide synthase and modifying genes” (priority 2002, published 2004).

Conditions: spectrum, in words

Compound: COC1CC(C)OC(OC2C(C)/C=C/C(=O)OC(C)C(COC3OC(C)C(O)C(OC)C3OC)C3OC3/C=C/C(=O)C(C)(O)CC2C)C1O (stereo not shown) [Chalcomycin, chalcomycin]
- antimicrobial activity: broad spectrum of antimicrobial activity
